Structures can show the parent of a compound that is named as a salt.

Here are results for two molecules from patent US6596730B1, “Phenyl urea and phenyl thiourea derivatives” (SmithKline Beecham p.l.c., priority 1999, dated 2003).

The target of one assay is T1, human orexin-1 receptor (Homo sapiens, UniProt O43613).
T1 construct: expressed in transfected cells; host or cells: HEK293
T1 sequence (O43613 1-425): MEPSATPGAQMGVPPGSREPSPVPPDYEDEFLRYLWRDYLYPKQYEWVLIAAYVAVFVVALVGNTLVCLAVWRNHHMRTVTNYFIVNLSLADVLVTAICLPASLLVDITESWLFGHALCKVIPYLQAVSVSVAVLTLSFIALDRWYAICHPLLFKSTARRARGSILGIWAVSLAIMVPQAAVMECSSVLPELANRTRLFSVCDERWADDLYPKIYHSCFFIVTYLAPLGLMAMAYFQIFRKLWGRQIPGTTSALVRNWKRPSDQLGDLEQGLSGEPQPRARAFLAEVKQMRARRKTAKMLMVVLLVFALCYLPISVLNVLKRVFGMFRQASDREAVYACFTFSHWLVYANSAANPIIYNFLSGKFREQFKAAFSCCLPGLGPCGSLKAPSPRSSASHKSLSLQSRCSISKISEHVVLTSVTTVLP
Put plainly: Determination of orexin-1 receptor antagonist activity (FLIPR calcium mobilisation, HEK293 cells, against 3.0 nM human orexin-A). Type of assay: cell-based. The following applies: HEK293 cells expressing human orexin-1 receptor; Kb=IC50/(1+([3/EC50]); agonist 3.0 nM human orexin-A. The method, then:
The orexin-1 receptor antagonist activity of the compounds of formula (I) was determined in accordance with the following experimental method.
HEK293 cells expressing the human orexin-1 receptor were grown in cell medium (MEM medium with Earl's salts) containing 2 mM L-Glutamine, 0.4 mg/mL G418 Sulfate from GIBCO BRL and 10% heat inactivated fetal calf serum from Gibco BRL. The cells were seeded at 20,000 cells/100 μl/well into 96-well black clear bottom sterile plates from Costar which had been pre-coated with 10 μg/well of poly-L-lysine from SIGMA. The seeded plates were incubated overnight at 37° C. in 5% CO2.
Agonists were prepared as 1 mM stocks in water:DMSO (1:1). […] Antagonist IC^50 values (the concentration of compound needed to inhibit 50% of the agonist response) were determined against 3.0 nM human orexin-A using 11×half log unit dilutions in Tyrode's buffer containing 10% DMSO and probenecid. On the day of assay 50 μl of cell medium containing probenecid (Sigma) and Fluo3AM (Texas Fluorescence Laboratories) was added (Quadra, Tomtec) to each well to give final concentrations of 2.5 mM and 4 μM, respectively. […] Cell plates were then transferred to the Fluorescent Imaging Plate Reader (FLIPR, Molecular Devices) instrument and maintained at 37° C. in humidified air. […] Agonists were added (by the FLIPR) after 20 sec (during continuous reading). […]
Background: Calcium assays in cells follow changes in intracellular calcium, usually with a dye or a luminescent sensor.

A further assay has as its system rat. The assay can be described thus: Rat sleep/EEG studies, central administration. It is filed as in vivo. The following applies: central administration at the onset of the normal sleep period. An excerpt: Therefore antagonists of its receptor may be useful in the treatment of sleep disorders including insomnia.
In a further assay the test system is freely-feeding rats. The following applies: central administration, 4 hour time period; cited from earlier work.

Turning to `COc1ccc(NC(=O)Nc2cc(C)nc3cccnc23)cc1C(=O)NCC1CC1` [Example 2, N-Cyclopropylmethyl-2-methoxy-5-[3-(2-methyl-[1,5]-naphthyridin-4-yl)ureido]benzamide Hydrochloride], the Kb (usually the equilibrium dissociation constant of an antagonist, usually derived from a functional assay) on human orexin-1 receptor was < 31.6 nM.

Regarding “orexin-A: ligand for the orexin-1 receptor, agonist of the orexin receptors; 33-residue peptide, sequence given in the 1st table (QPLPDCCRQKTCSCRLYELLHGAGNHAAGILTL; Orexin-A; UniProt O43612 34-66, looked up)”, in the assay with rat, the “effect on arousal / sleep” value is on record as “dose-related increase in arousal”. The “increase in food intake over control rats receiving vehicle” value in the assay on freely-feeding rats is given as “approximately four-fold”.
